According to patent US20260262643A1, “HERBICIDAL BENZOXAZINES” (FMC CORPORATION, priority 2022, published 2026):

Legend:
[1] = tested on: wheat; assay: Test C postemergence; format: in vivo, Triticum aestivum; conditions: 10 days
Method in brief: (§1)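 Visual injury ratings on a 0–100 scale (100 = complete control) were made against untreated controls 10 days after treatment in the greenhouse. Compounds, formulated with surfactant in non-phytotoxic solvent, were sprayed on soil preemergence or onto one- to two-leaf plants 2–10 cm tall postemergence.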

[2] = tested on: ducksalad; assay: Test D flooded paddy test; format: in vivo, Heteranthera limosa; conditions: 250 g ai/ha, applied to paddy water, visual rating after 13 to 14 days, scale 0 to 100 (0 no effect, 100 complete control)
Method in brief: (§2)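 Compounds go straight into paddy water over 2-leaf plants in pots flooded to 3 cm. Greenhouse holding lasts 13 to 14 days. Injury is scored by eye against controls from 0 (none) to 100 (complete control).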

[3] = tested on: ragweed; assay: Test C postemergence; format: in vivo, Ambrosia artemisiifolia; conditions: 10 days
Method in brief: as §1

[4] = tested on: galium; assay: Test C postemergence; format: in vivo, Galium aparine; conditions: 10 days
Method in brief: as §1

[5] = tested on: pigweed, palmer; assay: Test C preemergence; format: in vivo, Amaranthus palmeri; conditions: 0 to 100 scale (0 no effect, 100 complete control)
Method in brief: as §1

[6] = tested on: ragweed; assay: Test C preemergence; format: in vivo, Ambrosia artemisiifolia; conditions: 0 to 100 scale (0 no effect, 100 complete control)
Method in brief: as §1

[7] = tested on: barnyardgrass; assay: Test D flooded paddy test; format: in vivo, Echinochloa crus-galli; conditions: 250 g ai/ha, applied to paddy water, visual rating after 13 to 14 days, scale 0 to 100 (0 no effect, 100 complete control)
Method in brief: as §2

[8] = tested on: horseweed; assay: Test C postemergence; format: in vivo, Erigeron canadensis; conditions: 10 days
Method in brief: as §1

[9] = tested on: blackgrass; assay: Test C preemergence; format: in vivo, Alopecurus myosuroides; conditions: 0 to 100 scale (0 no effect, 100 complete control)
Method in brief: as §1

[10] = tested on: green foxtail; assay: Test C postemergence; format: in vivo, Setaria viridis; conditions: 10 days
Method in brief: as §1

[11] = tested on: blackgrass; assay: Test C postemergence; format: in vivo, Alopecurus myosuroides; conditions: 10 days
Method in brief: as §1

[12] = tested on: wheat; assay: Test C preemergence; format: in vivo, Triticum aestivum; conditions: 0 to 100 scale (0 no effect, 100 complete control)
Method in brief: as §1

[13] = tested on: barnyardgrass; assay: Test C postemergence; format: in vivo, Echinochloa crusgalli; conditions: 10 days
Method in brief: as §1

[14] = tested on: soybean; assay: Test C postemergence; format: in vivo, Glycine max; conditions: 10 days
Method in brief: as §1

[15] = tested on: green foxtail; assay: Test C preemergence; format: in vivo, Setaria viridis; conditions: 0 to 100 scale (0 no effect, 100 complete control)
Method in brief: as §1

[16] = tested on: ryegrass, Italian; assay: Test C postemergence; format: in vivo, Lolium multiflorum; conditions: 10 days
Method in brief: as §1

[17] = tested on: rice; assay: Test D flooded paddy test; format: in vivo, Oryza sativa; conditions: 250 g ai/ha, applied to paddy water, visual rating after 13 to 14 days, scale 0 to 100 (0 no effect, 100 complete control)
Method in brief: as §2

[18] = tested on: barnyardgrass; assay: Test C preemergence; format: in vivo, Echinochloa crusgalli; conditions: 0 to 100 scale (0 no effect, 100 complete control)
Method in brief: as §1

[19] = tested on: ryegrass, Italian; assay: Test C preemergence; format: in vivo, Lolium multiflorum; conditions: 0 to 100 scale (0 no effect, 100 complete control)
Method in brief: as §1

[20] = tested on: sedge, umbrella; assay: Test D flooded paddy test; format: in vivo, Cyperus difformis; conditions: 250 g ai/ha, applied to paddy water, visual rating after 13 to 14 days, scale 0 to 100 (0 no effect, 100 complete control)
Method in brief: as §2

[21] = tested on: kochia; assay: Test C preemergence; format: in vivo, Bassia scoparia; conditions: 0 to 100 scale (0 no effect, 100 complete control)
Method in brief: as §1

[22] = tested on: kochia; assay: Test C postemergence; format: in vivo, Bassia scoparia; conditions: 10 days
Method in brief: as §1

[23] = tested on: oat, wild; assay: Test C preemergence; format: in vivo, Avena fatua; conditions: 0 to 100 scale (0 no effect, 100 complete control)
Method in brief: as §1

[24] = tested on: soybean; assay: Test C preemergence; format: in vivo, Glycine max; conditions: 0 to 100 scale (0 no effect, 100 complete control)
Method in brief: as §1

[25] = tested on: pigweed, palmer; assay: Test C postemergence; format: in vivo, Amaranthus palmeri; conditions: 10 days
Method in brief: as §1

[26] = tested on: oat, wild; assay: Test C postemergence; format: in vivo, Avena fatua; conditions: 10 days
Method in brief: as §1

[27] = tested on: corn; assay: Test C preemergence; format: in vivo, Zea mays; conditions: Test C, preemergence, 125 g ai/ha; 0 to 100 scale (0 no effect, 100 complete control)
Method in brief: as §1

[28] = tested on: corn; assay: Test C postemergence; format: in vivo, Zea mays; conditions: 10 days
Method in brief: as §1

[29] = 125 g ai/ha, postemergence, 0 to 100 scale, 0 no effect, 100 complete control
[30] = Postemergence, 500 g ai/ha, visual 0 to 100 scale (0 no effect, 100 complete control)
[31] = Preemergence, 500 g ai/ha, visual rating after 10 days
[32] = Test C, preemergence, 125 g ai/ha

Cc1ccc(-n2cnc(C3(C(F)(F)F)CCC3)n2)cc1C(=O)N1C[C@H](C)Oc2c(Cl)cccc21 [Compound 168]
Plant response rating, Wheat [1, 29]: 10
Plant response rating, Wheat [1, 30]: 20
Plant response rating, Ducksalad (Flood) [2]: 0
Plant response rating, Ragweed [3, 29]: 60
Plant response rating, Ragweed [3, 30]: 70
Plant response rating, Galium [4, 29]: 80
Plant response rating, Galium [4, 30]: 90
Plant response rating, Pigweed, Palmer [5, 31]: 100
Pigweed, Palmer plant response rating [5, 32]: 100
Plant response rating, Ragweed [6, 31]: 60
Ragweed plant response rating [6, 32]: 30
Plant response rating, Barnyardgrass (Flood) [7]: 0
Plant response rating, Horseweed [8, 29]: 0
Plant response rating, Horseweed [8, 30]: 10
Plant response rating, Blackgrass [9, 31]: 60
Blackgrass plant response rating [9, 32]: 20
Plant response rating, Foxtail, Green [10, 29]: 20
Plant response rating, Foxtail, Green [10, 30]: 30
Plant response rating, Blackgrass [11, 29]: 0
Plant response rating, Blackgrass [11, 30]: 0
Plant response rating, Wheat [12, 31]: 20
Wheat plant response rating [12, 32]: 0
Plant response rating, Barnyardgrass [13, 29]: 10
Plant response rating, Barnyardgrass [13, 30]: 30
Plant response rating, Soybean [14, 29]: 100
Plant response rating, Soybean [14, 30]: 100
Plant response rating, Foxtail, Green [15, 31]: 100
Foxtail, Green plant response rating [15, 32]: 50
Plant response rating, Ryegrass, Italian [16, 29]: 20
Plant response rating, Ryegrass, Italian [16, 30]: 40
Plant response rating, Rice (Flood) [17]: 0
Barnyardgrass plant response rating ([18]; 125 g ai/ha, preemergence): 50
Plant response rating, Barnyardgrass [18, 31]: 70
Plant response rating, Ryegrass, Italian [19, 31]: 90
Ryegrass, Italian plant response rating [19, 32]: 70
Plant response rating, Sedge, Umbrella (Flood) [20]: 0
Plant response rating, Kochia [21, 31]: 50
Kochia plant response rating [21, 32]: 0
Plant response rating, Kochia [22, 29]: 80
Plant response rating, Kochia [22, 30]: 80
Plant response rating, Oat, Wild [23, 31]: 20
Oat, Wild plant response rating [23, 32]: 0
Plant response rating, Soybean [24, 31]: 60
Soybean plant response rating [24, 32]: 60
Plant response rating, Pigweed, Palmer [25, 29]: 70
Plant response rating, Pigweed, Palmer [25, 30]: 90
Plant response rating, Oat, Wild [26, 29]: 0
Plant response rating, Oat, Wild [26, 30]: 0
Corn plant response rating [27]: 0
Plant response rating, Corn [28, 29]: 10
Plant response rating, Corn [28, 30]: 10
